From EPA's ToxValDB 9.5 (doi:10.2903/j.efsa.2009.181r) come the findings set out here.

Converted amounts (≈) assume the structure as drawn.

One data set relates to Anas platyrhynchos. To be noted: short-term; oral; feed; mortality.
In another data set the test system is Apis mellifera. To be noted: acute; dermal; mortality.
In the next data set the test system is Avena sativa. Particulars: chronic/long-term; body weight.
The test system of the next data set is Bibionidae. Particulars: chronic/long-term; duration: 28 days; seedling emergence.
In a further data set the test system is Colinus virginianus. To be noted: mortality.
Another data set deals with Daphnia magna. Particulars: chronic/long-term; duration: 21 days; reproduction.
In another data set the test system is Pardosa sp. Particulars: acute; duration: 7 days; mortality.

As for `CC(C)N(C(=O)SCC(Cl)=C(Cl)Cl)C(C)C` [Tri-allate], the LC50 was above 1210 mg/kg-day with Anas platyrhynchos; 0.95 µg/mL (≈ 3.12 µM) in the data set with Oncorhynchus mykiss (acute, duration: 96 hours, mortality); 549 mg/kg in the data set on Tagia sp. (acute, duration: 14 days, mortality). For the same compound, the LD50 was above 100 µg/piece in the data set with Apis mellifera; 1560 mg/kg-day in the data set with Colinus virginianus (acute, oral); 1100 mg/kg with Rattus norvegicus (acute, oral, mortality). The NOEC was 11 g/ha with Avena sativa; 0.583 mg/L in the data set with Bibionidae; 54 mg/kg-day with Colinus virginianus (reproduction developmental); 0.013 mg/L in the data set with Daphnia magna; 0.038 mg/L in the data set on Oncorhynchus mykiss (chronic/long-term, duration: 88 days, growth); 27.2 mg/kg in the data set with Tagia sp. (chronic/long-term, duration: 56 days, reproduction). In the data set on Pardosa sp., this compound came in with an LEL of 2280 g/ha. The no observed adverse effect level (NOAEL) – broadly, the highest tested level that showed no adverse finding – stood at 60 mg/kg-day in the data set with Rattus norvegicus (acute, oral, clinical signs); 2.5 mg/kg-day in the data set with Rattus norvegicus (chronic, duration: 2 years, oral, diet, mortality); 6.4 mg/kg-day in the data set with Rattus norvegicus (subchronic, duration: 90 days, histopathology: nonneoplastic). The NOEL in the data set on Rattus norvegicus (chronic, M, mortality) stood at 9 mg/kg-day.
